Test: method code SF-AS, from PMID: 6686445
Settings: pH 7.4

SMILES	logD
O=C1CN=C(c2ccccc2C(F)(F)F)c2ccccc2N1	2.47
COCN1C(=O)CN=C(c2ccccc2F)c2cc(N)ccc21	1.31
N#Cc1ccc2c(c1)C(c1ccccc1)=NCC(=O)N2	1.82
COCN1C(=O)CN=C(c2ccccc2)c2cc(Cl)ccc21	2.86
O=C1CN=C(c2ccccc2[N+](=O)[O-])c2cc([N+](=O)[O-])ccc2N1	1.61
COc1ccc(C2=NCC(=O)N(C)c3ccc(Cl)cc32)cc1	3.15
O=C1CN=C(c2ccccc2)c2cc(F)ccc2N1	2.32
CN1C(=O)CN=C(c2c(Cl)cccc2Cl)c2cc(Cl)ccc21	3.04
CSCN1C(=O)CN=C(c2ccccc2)c2cc(Cl)ccc21	3.32
COc1ccccc1C1=NCC(=O)Nc2ccc(Cl)cc21	2.63
O=C1CN=C(c2cccc(C(F)(F)F)c2)c2ccccc2N1	3.19
CN1C(=O)CN=C(c2ccccc2Cl)c2cc(Cl)ccc21	3.12
C[C@@H]1N=C(c2ccccc2Cl)c2cc([N+](=O)[O-])ccc2NC1=O	2.72
O=C1CN=C(c2ccccc2F)c2cc(Cl)ccc2N1	2.7
O=C1CN=C(c2c(F)cccc2F)c2ccc(Cl)cc2N1	2.88
CN1C(=O)CN=C(c2ccccc2)c2cc(N)ccc21	1.46
COCN1C(=O)CN=C(c2ccccc2Cl)c2cc(Cl)ccc21	3.23
COCN1C(=O)CN=C(c2ccccc2)c2cc([N+](=O)[O-])ccc21	2.05
O=C1CN=C(c2ccc(C(F)(F)F)cc2)c2ccccc2N1	3.34
CCc1ccc2c(c1)C(c1ccccc1F)=NCC(=O)N2	2.92
O=C1CN=C(c2ccccc2F)c2cc(Cl)c(Cl)cc2N1	3.63
O=C1CN=C(c2ccccc2)c2cc([N+](=O)[O-])ccc2N1CC(O)CO (stereo not given)	0.96
CN1C(=O)CN=C(c2ccc(Cl)cc2)c2cc(F)ccc21	3.1
COCN1C(=O)C(O)N=C(c2ccccc2)c2cc(N)ccc21 (stereo not given)	0.75
O=C1CN=C(c2ccccc2C(F)(F)F)c2cc([N+](=O)[O-])ccc2N1	2.51

SMILES	logD
Cc1ccccc1C1=NCC(=O)Nc2ccc(Cl)cc21	3.12
CSCN1C(=O)CN=C(c2ccccc2)c2cc(N)ccc21	1.92
CN1C(=O)CN=C(c2ccccc2F)c2cc(N)ccc21	1.3
Cc1ccc2c(c1)C(c1ccccc1)=NCC(=O)N2	2.62
O=C1CN=C(c2ccccc2)c2ccccc2N1	2.18
COCN1C(=O)CN=C(c2ccccc2)c2cc(N)ccc21	1.32
CC1N=C(c2ccccc2Cl)c2cc(Cl)ccc2N(C)C1=O (stereo not given)	3.4
Cc1ccccc1C1=NCC(=O)N(C)c2ccc(Cl)cc21	3.03
O=C1CN=C(c2ccccc2Cl)c2cc(Cl)ccc2N1	3.15
CN1C(=O)CN=C(c2ccccc2F)c2cc(Cl)ccc21	2.75
O=C1CN=C(c2ccccc2F)c2cc([N+](=O)[O-])ccc2N1	2.15
O=C1CN=C(c2ccccc2)c2cc(C(F)(F)F)ccc2N1	3.1
CCN1C(=O)CN=C(c2ccccc2)c2cc(N)ccc21	1.81
CSc1ccc2c(c1)C(c1ccccc1)=NCC(=O)N2C	2.95
COc1ccc2c(c1)C(c1ccccc1)=NCC(=O)N2	2.24
CC(=O)c1ccc2c(c1)C(c1ccccc1F)=NCC(=O)N2	1.75
O=C1CN=C(c2ccc(F)cc2)c2cc(Cl)ccc2N1	2.9
O=C1CN=C(c2c(F)cccc2F)c2cc(Cl)ccc2N1	2.68
O=C1CN=C(c2ccccc2Br)c2cc(Cl)ccc2N1	3.17
CCN1C(=O)CN=C(c2ccccc2)c2cc(Cl)ccc21	3.21
COc1cccc(C2=NCC(=O)Nc3ccc(Cl)cc32)c1	3.14
O=C1CN=C(c2ccccc2F)c2cc(Cl)ccc2N1CC(O)CO (stereo not given)	1.51
CN1C(=O)CN=C(c2ccccc2F)c2cc(I)ccc21	3.14
O=C1CN=C(c2ccccc2F)c2ccccc2N1	2.38
CSc1ccccc1C1=NCC(=O)Nc2ccc(Cl)cc21	2.99
